From patent US4056625A, “Pesticidal compositions containing benzodioxole derivatives and methods of combating pests” (priority 1972, dated 1977)
≈ marks a conversion by molar mass, not a printed value.

Tests used:
Type in all cases: in vivo
[1] = test system: adult female houseflies (Musca domestica); assay: Housefly mortality on treated filter papers (Examples 32-40); conditions: 100 milligrams per square foot, after 24 hours
Text: 9 centimeter diameter filter papers treated with aqueous acetone solutions of each of the compounds
at rates equivalent to 100 milligrams per square foot (100 mgm./0.09 m^2.) of active ingredient were placed in 9 centimeter diameter Petri dishes. Batches of adult female houseflies (Musca domestica) lightly anaesthetised with carbon dioxide were then introduced into the dishes and a glass lid placed over each.

[2] = test system: first instar larvae of the sheep blowfly (Lucilia sericata); assay: Sheep blowfly larvae on treated cotton wool pads (Examples 53-60); conditions: 1/2 ml. of acetone solution on cotton wool pads, after 24 hours
Experimental: Cylindrical pads of cotton wool, approximate diameter 1 cm., length 2 cms. were treated with 1/2 ml. of acetone solutions of the following carbamates:
After leaving for 12 hours to dry, the pads were treated with 1 ml. of sheep blood serum and infested with 20 first instar larvae of the sheep blowfly (Lucilia sericata). After 24 hours, the blowflies were examined and found to be all dead; insects similarly infested on untreated pads were unaffected.

[3] = test system: second instar larvae of the cabbage white butterfly (Pieris brassicae); assay: Cabbage white butterfly larvae on treated cabbage leaf discs (Examples 41-48); conditions: 10, 5, 1, 0.5 and 0.25 pounds per acre, three replications, after 48 hours
Text: 7 centimeter diameter circular discs of cabbage leaves were painted with 1 milliliter aqueous acetone solutions of each of the following compounds:
in each case at concentrations equivalent to leaf applications of 10, 5, 1, 0.5 and 0.25 pounds per acre (11.2, 5.6, 1.12, 0.56 and 0.28 kg./hectare) of active ingredient. When the deposit on the leaf discs had dried, each leaf disc was placed in a 9 centimeter diameter Petri dish, infested with ten second instar larvae of the cabbage white butterfly (Pieris brassicae) and covered with a glass lid. Three replications were made with each compound at each concentration level.

[4] = test system: adult female yellow fever mosquitos (Aedes aegypti); assay: Yellow fever mosquitos in coated glass tubes (Examples 61-64); conditions: 3 mg of active ingredient per square foot, after 24 hours
Experimental: Acetone solutions of the compounds
were applied to the inside walls of glass tubes 9 cm high by 4.5 cm diameter so that after the acetone had evaporated a coating equivalent to 3 mg of active ingredient per square foot remained. Batches of adult female yellow fever mosquitos (Aedes aegypti) were then caged in the tubes.

[5] = test system: first stage larvae of the cattle tick, Boophilus microplus; assay: Cattle tick larvae in treated filter paper packets (Example 65); conditions: 30 parts per million, 25° C, 24 hours
Experimental: Filter papers, diameter 9 cm., were treated with 1 ml. of acetone solutions containing 30 parts per million of 2,2-dimethyl-1,3-benzodioxol-4-yl N-methylcarbamate or 7-chloro-2,2-dimethyl-1,3-benzodioxol-4-yl N-methylcarbamate. When they had dried, they were folded into quadrant shaped packets, infested with 20 first stage larvae of the cattle tick, Boophilus microplus, closed with a metal clip and kept at 25° C for 24 hours.

[6] = test system: adult female houseflies (Musca domestica); assay: LC50 against adult female houseflies on filter papers (Example 70)
Experimental: (§1) If complete kill was obtained at the highest dosage rate, the test was repeated using a logarithmically reducing dose regime until less than 50% mortality was recorded. The LC50 was then calculated from the line of best fit from the data plotted on log/provit analysis paper.
(§2) Similarly LC50 values were obtained against various pests as described in Examples 70-73 where, however, the LC50 values are abbreviated on a 0-6 scale where
LC50 values were obtained for each of Compounds 1, 2, 3, 4, 5 and 6 against adult female houseflies (Musca domestica), of the order Diptera. The tests were carried out by adding acetone solutions of the compounds to 9 cm diameter filter papers in the base of 9 cm diameter crystallising dishes, placing the houseflies in the dishes after the acetone had evaporated, closing the dishes with Petri dish lids and counting the mortality after 24 hours. The highest dosage rate employed was 1000 mg/ft^2 (10.65 g/m^2).

[7] = test system: German cockroaches (Blattella germanica); assay: Persistency against German cockroaches on treated glass plates (Example 74); conditions: 100 mg/ft^2 (1.065 g/m^2), 2nd stage nymphs, 7 day intervals until less than 50% mortality
Experimental: Persistency was measured against German cockroaches (Blattella germanica), or the order Orthoptera, by treating glass plates with acetone solutions of the compunds listed below to produce a deposit equivalent to 100 mg/ft^2 (1.065 g/m^2), and caging 2nd stage nymph cockroaches on these surfaces for 48 hours at 7 day intervals until less than 50% mortality was recorded.

[8] = test system: adult apterous vetch aphids (Megoura viciae); assay: Vetch aphids on sprayed field beans (Examples 49 and 50); conditions: 100 parts per million, 50 gallons per acre, 24 hours
Text: Aqueous suspensions containing 100 parts per million of 2,2-dimethyl-1,3-benzodioxol-4-yl N-methylcarbamate and 2,2-dimethyl-1,3-benzodioxol-4-yl N-acetyl-N-methylcarbamate were sprayed at a rate equivalent to 50 gallons per acre (585 liters per hectare) on young field beans (Vicia faba) infested with adult apterous vetch aphids (Megoura viciae). After treatment the plants were enclosed in glass cages with gauze tops for ventilation.

[9] = test system: yellow fever mosquito (Aedes aegypti); assay: Persistency against yellow fever mosquito on treated glass plates (Example 75); conditions: 100 mg/ft^2 (1.065 g/m^2), adult female mosquitos, 7 day intervals until less than 50% mortality
Experimental: Persistency was measured against yellow fever mosquito (Aedes aegypti), of the order Diptera, by treating glass plates with acetone solutions of the compounds listed below to produce a deposit equivalent to 100 mg/ft^2 (1.065 g/m^2), and caging adult female mosquitos on these surfaces for 24 hours at 7 day intervals until less than 50% mortality was recorded.

[10] = test system: larvae of the sheep maggot fly (Lucilia sericata); assay: LC50 against sheep maggot fly larvae on dental rolls (Example 71)
Experimental: as §1, §2
Similarly, LC50 values were obtained for each of Compounds 1, 2, 3, 4, 5 and 6 against larvae of the sheep maggot fly (Lucilia sericata), of the order Diptera. The tests were carried out by placing newly hatched larvae on dental rolls contained in glass vials and soaked with 1 ml of blood serum containing the compound. The mortality was assessed after 24 hours. The highest dosage rate employed was 1000 ppm.

[11] = test system: adult red spider mites (Tetranychus telarius); assay: LC50 against adult red spider mites on sprayed French beans (Example 73); conditions: 48 h, read-out: LC50 value
Experimental: as §1, §2
Similarly, LC50 values were obtained for each of Compounds 1, 2, 4, 5 and 6 against adult red spider mites (Tetranychus telarius), of the order Acarina. The tests were carried out by spraying infected French beans with a 50% acetone water solution of the compound, containing 500 ppm of Lissapol NX as a wetting agent, and recording the mortality after 48 hours. The highest dosage rate employed was 1000 ppm which is equivalent to 10 lb/acre (11.20 kg/ha).

[12] = test system: 2nd stage nymph of the German cockroach (Blattella germanica); assay: LC50 against German cockroach nymphs in treated glass tubes (Example 69)
Experimental: Compounds 2 and 4 and also 2,2-dimethyl-1,3- benzodioxol-4-yl N-methylcarbamate(compound 5) and 2,2-dimethyl-1,3-benzodioxol-4-yl N-acetyl-N-methylcarbamate (compound 6) were tested for activity against the 2nd stage nymph of the German cockroach (Blattella germanica), of the order Orthoptera, by treating the walls of glass tubes (9.0 cm high × 4.5 cm diameter) with acetone solutions of the compounds and after the acetone had evaporated caging the insects in the tubes for 48 hours. The highest dosage rate employed was 50 mg/ft^2 (532 mg/m^2).
as §1
The LC50 values are abbreviated on a 0-6 scale where

## CCCC(=O)N(C)C(=O)Oc1cccc2c1OCO2 [1,3-benzodioxol-4-yl N-butyryl-N-methylcarbamate]
[1]
  mortality of houseflies: all found to be dead

## CNC(=O)Oc1cccc2c1OCO2 [1,3-benzodioxol-4-yl N-methylcarbamate]
[1]
  mortality of houseflies: all found to be dead

## CC(=O)N(C)C(=O)Oc1cc(C)cc2c1OC(C)(C)O2 [2,2,6-trimethyl-1,3-benzodioxol-4-yl N-acetyl-N-methylcarbamate]
[1]
  mortality of houseflies: all found to be dead

## CNC(=O)Oc1cc(C)cc2c1OC(C)(C)O2 [2,2,6-trimethyl-1,3-benzodioxol-4-yl N-methylcarbamate]
[2]
  mortality of sheep blowfly larvae: all dead

## CNC(=O)Oc1ccc(C)c2c1OC(C)(C)O2 [2,2,7-trimethyl-1,3-benzodioxol-4-yl N-methylcarbamate]
[3]
  mortality of cabbage white butterfly larvae: all found to be dead
[2]
  mortality of sheep blowfly larvae: all dead

## CCC1(CC)Oc2cccc(OC(=O)N(C)C(C)=O)c2O1 [2,2-diethyl-1,3-benzodioxol-4-yl N-acetyl-N-methylcarbamate]
[4]
  mortality of yellow fever mosquitos: all found to be dead

## CCC1(CC)Oc2cccc(OC(=O)NC)c2O1 [2,2-diethyl-1,3-benzodioxol-4-yl N-methylcarbamate]
[2]
  mortality of sheep blowfly larvae: all dead

## C=CCN(C(C)=O)C(=O)Oc1cccc2c1OC(C)(C)O2 [2,2-dimethyl-1,3-benzodioxol-4-yl N-acetyl-N-allylcarbamate]
[1]
  mortality of houseflies: all found to be dead

## C#CCN(C(C)=O)C(=O)Oc1cccc2c1OC(C)(C)O2 [2,2-dimethyl-1,3-benzodioxol-4-yl N-acetyl-N-propargylcarbamate]
[3]
  mortality of cabbage white butterfly larvae: all found to be dead

## C=CCNC(=O)Oc1cccc2c1OC(C)(C)O2 [2,2-dimethyl-1,3-benzodioxol-4-yl N-allylcarbamate]
[3]
  mortality of cabbage white butterfly larvae: all found to be dead

## C#CCNC(=O)Oc1cccc2c1OC(C)(C)O2 [2,2-dimethyl-1,3-benzodioxol-4-yl N-propargylcarbamate]
[3]
  mortality of cabbage white butterfly larvae: all found to be dead

## CC(=O)N(C)C(=O)Oc1cccc2c1OC1(CCCCC1)O2 [2,2-pentamethylene-1,3-benzodioxol-4-yl N-acetyl-N-methylcarbamate]
[4]
  mortality of yellow fever mosquitos: all found to be dead

## CC(=O)N(C)C(=O)Oc1cccc2c1OC1(CCCC1)O2 [2,2-tetramethylene-1,3-benzodioxol-4-yl N-acetyl-N-methylcarbamate]
[4]
  mortality of yellow fever mosquitos: all found to be dead

## CNC(=O)Oc1cccc2c1OC1(CCCC1)O2 [2,2-tetramethylene-1,3-benzodioxol-4-yl N-methylcarbamate]
[3]
  mortality of cabbage white butterfly larvae: all found to be dead

## CCC1(C)Oc2cccc(OC(=O)NC)c2O1 (centres unmarked) [2-ethyl-2-methyl-1,3-benzodioxol-4-yl N-methylcarbamate]
[3]
  mortality of cabbage white butterfly larvae: all found to be dead
[2]
  mortality of sheep blowfly larvae: all dead

## CC(=O)N(C)C(=O)Oc1cccc2c1OC(C)O2 (centres unmarked) [2-methyl-1,3-benzodioxol-4-yl N-acetyl-N-methylcarbamate]
[1]
  mortality of houseflies: all found to be dead

## CNC(=O)Oc1cccc2c1OC(C)O2 (centres unmarked) [2-methyl-1,3-benzodioxol-4-yl N-methylcarbamate]
[2]
  mortality of sheep blowfly larvae: all dead

## CC(=O)N(C)C(=O)Oc1cccc2c1OC(C)(C(C)(C)C)O2 (centres unmarked) [2-methyl-2-t-butyl-1,3-benzodioxol-4-yl N-acetyl-N-methylcarbamate]
[4]
  mortality of yellow fever mosquitos: all found to be dead

## CNC(=O)Oc1cccc2c1OC(C)(C(C)(C)C)O2 (centres unmarked) [2-tert-butyl-2-methyl-1,3-benzodioxol-4-yl N-methylcarbamate]
[2]
  mortality of sheep blowfly larvae: all dead

## CNC(=O)Oc1ccc(Cl)c2c1OC(C)(C)O2 [7-chloro-2,2-dimethyl-1,3-benzodioxol-4-yl N-methylcarbamate]
[5]
  mortality of cattle tick larvae: all the ticks in the treated filter papers were dead

## CCc1ccc(OC(=O)NC)c2c1OC(C)(C)O2 [7-ethyl-2,2-dimethyl-1,3-benzodioxol-4-yl N-methylcarbamate]
[2]
  mortality of sheep blowfly larvae: all dead

## CC(=O)N(C)C(=O)Oc1cccc2c1OC(C)(C)O2 [Compound 6, 2,2-dimethyl-1,3-benzodioxol-4-yl N-acetyl-N-methylcarbamate]
[6]; adult female houseflies, 24 hours, 0-6 scale (mg/ft^2)
  LC50 value: 3 (30-99 mg/ft^2 (0.32 - 1.06 g/m^2))
[6]; compared with compound 5
  activity against houseflies (in words): worse
[3]
  mortality of cabbage white butterfly larvae: all found to be dead
[7]
  Persistency: 8 to 14 days
[8]
  kill of vetch aphids: complete kill of the aphids in 24 hours
[1]
  mortality of houseflies: all found to be dead
[9]
  Persistency: 15 to 21 days
[10]; Lucilia sericata, 24 h, read-out: LC50 value
  LC50: 30 to 99 µg/mL (≈ 113 to 373 µM)
[10]; compared with compound 5
  activity against sheep maggot fly (in words): worse
[11]
  LC50: 100 to 299 µg/mL (≈ 377 to 1130 µM)
[12]; 2nd stage nymph German cockroach, 48 hours, 0-6 scale
  LC50 value: 1 (15-50 mg/ft^2 (160-532 mg/m^2))
[12]; cockroaches
  activity against cockroaches (in words): low activity against cockroaches
